Ki data for 22 molecules are collected here from US8012998B2, “Pyrrolidine aryl-ether as NK-3 receptor antagonists” (Hoffmann—LA Roche Inc., priority 2007, dated 2011).

SMILES strings stand for the structures.

The target in the experiment is T1, human NK3 receptor (Homo sapiens, UniProt P29371).
T1 construct: expressed in transfected cells; host or cells: HEK293 cells (transient expression), membrane preparation
T1 sequence (P29371 1-465): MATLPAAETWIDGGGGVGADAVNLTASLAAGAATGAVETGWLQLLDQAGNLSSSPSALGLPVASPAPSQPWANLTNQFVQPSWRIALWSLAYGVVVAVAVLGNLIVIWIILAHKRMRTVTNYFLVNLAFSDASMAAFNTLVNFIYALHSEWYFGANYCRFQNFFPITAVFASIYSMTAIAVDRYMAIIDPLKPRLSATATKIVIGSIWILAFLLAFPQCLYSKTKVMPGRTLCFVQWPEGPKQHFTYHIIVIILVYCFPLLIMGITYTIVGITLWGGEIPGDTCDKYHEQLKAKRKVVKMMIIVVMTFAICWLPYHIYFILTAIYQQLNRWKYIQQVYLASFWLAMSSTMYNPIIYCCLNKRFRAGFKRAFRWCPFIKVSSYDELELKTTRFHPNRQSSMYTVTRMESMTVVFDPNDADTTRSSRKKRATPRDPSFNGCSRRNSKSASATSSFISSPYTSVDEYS
The experiment is described as follows: [3H]SR142801 competition binding assay (hNK3 receptor binding). As to conditions: [3H]SR142801 radioligand; membranes from HEK293 cells transiently expressing recombinant human NK3 receptor; Ki by Cheng-Prussoff; read-out: KiNK3 h. As for the experimental part: [^3H]SR^142801 Competition Binding Assay
hNK3 receptor binding experiment were performed using [^3H]SR^142801 (Catalog No. TRK1035, specific activity: 74.0 Ci/mmol, Amersham, GE Healthcare UK limited, Buckinghamshire, UK) and membrane isolated from HEK293 cells transiently expressing recombinant human NK3 receptor. After thawing, the membrane homogenates were centrifuged at 48,000×g for 10 min at 4° C., the pellets were resuspended in the 50 mM Tris-HCl, 4 mM MnCl2, 1 μM phosphoramidon, 0.1% BSA binding buffer at pH 7.4 to a final assay concentration of 5 μg protein/well. […] At the end of the incubation, membranes were filtered onto unitfilter (96-well white microplate with bonded GF/C filter preincubated 1 h in 0.3% PEI +0.3% BSA, Packard BioScience, Meriden, Conn.) with a Filtermate 196 harvester (Packard BioScience) and washed 4 times with ice-cold 50 mM Tris-HCl, pH 7.4 buffer. Nonspecific binding was measured in the presence of 10 μM SB222200 for both radioligands. The radioactivity on the filter was counted (5 min) on a Packard Top-count microplate scintillation counter with quenching correction after addition of 45 μl of microscint 40 (Canberra Packard S.A., Zutrich, Switzerland) and shaking for 1 h. Inhibition curves were fitted according to the Hill equation: y=100/(1+(x/IC50)^nH), where nH=slope factor using Excel-fit 4 software (Microsoft). IC50 values were derived from the inhibition curve and the affinity constant (Ki) values were calculated using the Cheng-Prussoff equation Ki=IC50/(1+[L]/KD) where [L] is the concentration of radioligand and KD is its dissociation constant at the receptor, derived from the saturation isotherm. All experiments were performed in duplicate and the mean ± standard error (SEM) of the individual Ki values was calculated.
Consider `Cc1cccc(C(=O)N2C[C@H]([C@H](C)Oc3ccc(C#N)cn3)[C@@H](c3ccc(Cl)c(Cl)c3)C2)n1` (racemic) [Example 93, 6-{(SR)-1-[(3RS,4SR)-4-(3,4-Dichloro-phenyl)-1-(6-methyl-pyridine-2-carbonyl)-pyrrolidin-3-yl]-ethoxy}-nicotinonitrile], for which the Ki was 0.0646 µM.

Consider `Cc1ncc(C(=O)N2C[C@H]([C@H](C)Oc3ccc(C#N)cn3)[C@@H](c3ccc(Cl)c(Cl)c3)C2)c(C)n1` (racemic) [Example 36, 6-{(SR)-1-[(3RS,4SR)-4-(3,4-Dichloro-phenyl)-1-(2,4-dimethyl-pyrimidine-5-carbonyl)-pyrrolidin-3-yl]-ethoxy}-nicotinonitrile], for which the Ki amounted to 0.084 µM.

In the case of `Cc1ncc(C(=O)N2C[C@H]([C@H](C)Oc3ccc(Cl)cn3)[C@@H](c3ccc(F)c(F)c3)C2)cn1` [Example 103, [(3R,4S)-3-[(S)-1-(5-Chloro-pyridin-2-yloxy)-ethyl]-4-(3,4-difluoro-phenyl)-pyrrolidin-1-yl]-(2-methyl-pyrimidin-5-yl)-methanone], the Ki worked out at 0.0257 µM.

As for `C[C@@H](Oc1ccc(Cl)cn1)[C@@H]1CN(C(=O)c2ccc(F)nc2)C[C@H]1c1ccc(Cl)c(Cl)c1` (racemic) [Example 14, [(3SR,4RS)-3-[(RS)-1-(5-Chloro-pyridin-2-yloxy)-ethyl]-4-(3,4-dichloro-phenyl)-pyrrolidin-1-yl]-(6-fluoro-pyridin-3-yl)-methanone], the Ki was found to be 0.0278 µM.

`Cc1cncc(C(=O)N2C[C@H]([C@H](C)Oc3ccc(C#N)cn3)[C@@H](c3ccc(Cl)c(Cl)c3)C2)c1` (racemic) [Example 73, 6-{(SR)-1-[(3RS,4SR)-4-(3,4-Dichloro-phenyl)-1-(5-methyl-pyridine-3-carbonyl)-pyrrolidin-3-yl]-ethoxy}-nicotinonitrile]: the Ki turned out to be 0.0068 µM.

For `C[C@H](Oc1ccc(C(F)(F)F)cn1)[C@H]1CN(C(=O)c2ccc(C#N)nc2)C[C@@H]1c1ccc(Cl)c(Cl)c1` (racemic) [Example 56, 5-{(3SR,4RS)-3-(3,4-Dichloro-phenyl)-4-[(SR)-1-(5-trifluoromethyl-pyridin-2-yloxy)-ethyl]-pyrrolidine-1-carbonyl}-pyridine-2-carbonitrile], the Ki was found to be 0.0043 µM.

On to `C[C@H](Oc1ccc(Cl)cn1)[C@H]1CN(C(=O)c2ccc(C#N)nc2)C[C@@H]1c1ccc(Cl)c(Cl)c1` (single isomer, unassigned) [Example 54], for which the Ki was determined as 0.002 µM.

`Cc1ncc(C(=O)N2C[C@@H]([C@@H](C)Oc3ccc(Cl)cn3)[C@@H](c3ccc(Cl)c(Cl)c3)C2)c(C)n1` (racemic) [Example 37]: the Ki came to 0.0316 µM.

For the molecule `C[C@H](Oc1ccc(C#N)cn1)[C@H]1CN(C(=O)c2ccc(-n3ccnc3)nc2)C[C@@H]1c1ccc(Cl)c(Cl)c1` (racemic) [Example 71, 6-{(SR)-1-[(3RS,4SR)-4-(3,4-Dichloro-phenyl)-1-(6-imidazol-1-yl-pyridine-3-carbonyl)-pyrrolidin-3-yl]-ethoxy}-nicotinonitrile], the Ki was 0.0061 µM.

For the molecule `Cc1cc(C(=O)N2C[C@@H]([C@@H](C)Oc3ccc(Cl)cn3)[C@H](c3ccc(Cl)c(Cl)c3)C2)c(C)n1C1CC1` (racemic) [Example 31, [(3SR,4RS)-3-[(RS)-1-(5-Chloro-pyridin-2-yloxy)-ethyl]-4-(3,4-dichloro-phenyl)-pyrrolidin-1-yl]-(1-cyclopropyl-2,5-dimethyl-1H-pyrrol-3-yl)-methanone], the Ki was 0.005 µM.

Take `COc1ncc(C(=O)N2C[C@@H]([C@@H](C)Oc3ccc(Cl)cn3)[C@H](c3ccc(Cl)c(Cl)c3)C2)cn1` (racemic) [Example 12, [(3SR,4RS)-3-[(RS)-1-(5-Chloro-pyridin-2-yloxy)-ethyl]-4-(3,4-dichloro-phenyl)-pyrrolidin-1-yl]-(2-methoxy-pyrimidin-5-yl)-methanone]: the Ki came to 0.0194 µM.

With `C[C@H](Oc1ccc(C(F)(F)F)cn1)[C@H]1CN(C(=O)c2ccc(C#N)cc2)C[C@@H]1c1ccc(Cl)c(Cl)c1` (racemic) [Example 55, 4-{(3SR,4RS)-3-(3,4-Dichloro-phenyl)-4-[(SR)-1-(5-trifluoromethyl-pyridin-2-yloxy)-ethyl]-pyrrolidine-1-carbonyl}-benzonitrile], the Ki amounted to 0.0065 µM.

With `Cc1cc(C(=O)N2C[C@H]([C@H](C)Oc3ccc(C#N)cn3)[C@@H](c3ccc(Cl)c(Cl)c3)C2)cnn1` (racemic) [Example 89, 6-{(SR)-1-[(3RS,4SR)-4-(3,4-Dichloro-phenyl)-1-(6-methyl-pyridazine-4-carbonyl)-pyrrolidin-3-yl]-ethoxy}-nicotinonitrile], the Ki was determined as 0.0091 µM.

As to `Cc1cnc(C(=O)N2C[C@H]([C@H](C)Oc3ccc(C#N)cn3)[C@@H](c3ccc(Cl)c(Cl)c3)C2)cn1` (racemic) [Example 97, 6-{(SR)-1-[(3RS,4SR)-4-(3,4-Dichloro-phenyl)-1-(5-methyl-pyrazine-2-carbonyl)-pyrrolidin-3-yl]-ethoxy}-nicotinonitrile], the Ki was determined as 0.0675 µM.

Consider `Cc1ccc(C(=O)N2C[C@@H]([C@@H](C)Oc3ccc(Cl)cn3)[C@H](c3ccc(Cl)c(Cl)c3)C2)cn1` (racemic) [Example 16, [(3SR,4RS)-3-[(RS)-1-(5-Chloro-pyridin-2-yloxy)-ethyl]-4-(3,4-dichloro-phenyl)-pyrrolidin-1-yl]-(6-methyl-pyridin-3-yl)-methanone], for which the Ki worked out at 0.0092 µM.

In the case of `C[C@@H](Oc1ccc(Cl)cn1)[C@@H]1CN(C(=O)c2cnc(C#N)nc2)C[C@H]1c1ccc(Cl)c(Cl)c1` [Example 50, 5-[(3S,4R)-3-[(R)-1-(5-Chloro-pyridin-2-yloxy)-ethyl]-4-(3,4-dichloro-phenyl)-pyrrolidine-1-carbonyl]-pyrimidine-2-carbonitrile], the Ki stood at 0.0046 µM.

With `C[C@@H](Oc1ccc(Cl)cn1)[C@@H]1CN(C(=O)c2ccc(CC#N)o2)C[C@H]1c1ccc(Cl)c(Cl)c1` (racemic) [Example 30, {5-[(3SR,4RS)-3-[(RS)-1-(5-Chloro-pyridin-2-yloxy)-ethyl]-4-(3,4-dichloro-phenyl)-pyrrolidine-1-carbonyl]-furan-2-yl}-acetonitrile], the Ki worked out at 0.08 µM.

For `C[C@H](Oc1ccc(C#N)cn1)[C@H]1CN(C(=O)c2cnc(C(C)(C)C)nc2)C[C@@H]1c1ccc(Cl)c(Cl)c1` (racemic) [Example 98, 6-{(SR)-1-[(3RS,4SR)-1-(2-tert-Butyl-pyrimidine-5-carbonyl)-4-(3,4-dichloro-phenyl)-pyrrolidin-3-yl]-ethoxy}-nicotinonitrile], the Ki was 0.0457 µM.

For the molecule `C[C@@H](Oc1ccc(Cl)cn1)[C@@H]1CN(C(=O)c2ccc(C#N)nc2)C[C@H]1c1ccc(Cl)c(Cl)c1` (racemic) [Example 35, 5-[(3SR,4RS)-3-[(RS)-1-(5-Chloro-pyridin-2-yloxy)-ethyl]-4-(3,4-dichloro-phenyl)-pyrrolidine-1-carbonyl]-pyridine-2-carbonitrile], the Ki was found to be 0.002 µM.

As to `C[C@@H](Oc1ccc(Cl)cn1)[C@@H]1CN(C(=O)c2ccc(N)nc2)C[C@H]1c1ccc(Cl)c(Cl)c1` (racemic) [Example 20, (6-Amino-pyridin-3-yl)-[(3SR,4RS)-3-[(RS)-1-(5-chloro-pyridin-2-yloxy)-ethyl]-4-(3,4-dichloro-phenyl)-pyrrolidin-1-yl]-methanone], the Ki was determined as 0.017 µM.

In the case of `C[C@@H](Oc1ccc(Cl)cn1)[C@@H]1CN(C(=O)c2ccc(CCN(C)C)cc2)C[C@H]1c1ccc(Cl)c(Cl)c1` [Example 44, [(3S,4R)-3-[(R)-1-(5-Chloro-pyridin-2-yloxy)-ethyl]-4-(3,4-dichloro-phenyl)-pyrrolidin-1-yl]-[4-(2-dimethylamino-ethyl)-phenyl]-methanone], the Ki was found to be 0.0118 µM.

For `Cc1ncc(C(=O)N2C[C@H]([C@H](C)Oc3ccc(C#N)cn3)[C@@H](c3ccc(Cl)c(Cl)c3)C2)cn1` (racemic) [Example 57, 6-{(SR)-1-[(3RS,4SR)-4-(3,4-Dichloro-phenyl)-1-(2-methyl-pyrimidine-5-carbonyl)-pyrrolidin-3-yl]-ethoxy}-nicotinonitrile], the Ki came out at 0.0234 µM.
